Assay results published in patent US20200246284A1 (Academia Sinica, priority 2015, published 2020).
Values joined by “and” are separate entries in the source; they are usually repeats but may differ in a detail not shown here. Equal values may be shown once. Read-outs that look alike come from different tables or passages of the source.

Assays:
H125 = format: cell-based, human
H417 = assay: Cytotoxicity SCLC 72 hr alamar blue; format: cell-based, human
[1] = tested on: FTE-hTERT Fallopian epithelium; assay: Cytotoxicity normal tissue 72 hr; format: cell-based, human
H596 = format: cell-based, human
[2] = tested on: BEAS2B SV40 bronchial epithelium; format: cell-based, human
CALU-3 = format: cell-based, human
H1755 = format: cell-based, human
A549 = format: cell-based, human
CALU-6 = format: cell-based, human
PC9/gefb4 = format: cell-based, human
H525 = format: cell-based, human
H249 = assay: Cytotoxicity SCLC 72 hr alamar blue; format: cell-based, human
CL97 = format: cell-based, human
H211 = assay: Cytotoxicity SCLC 72 hr alamar blue; format: cell-based, human
H23 = format: cell-based, human
H526 = assay: Cytotoxicity SCLC 72 hr alamar blue; format: cell-based, human
[3] = tested on: IMR90 fetal lung myofibroblast; assay: Cytotoxicity normal tissue 72 hr; format: cell-based, human
HCC15 = format: cell-based, human
H719 = assay: Cytotoxicity SCLC 72 hr alamar blue; format: cell-based, human
EBC1 = format: cell-based, human
H3255 = format: cell-based, human
H526 xenograft = assay: SCLC H526 xenograft in nude mice; format: in vivo, mouse; conditions: 40 mg/kg i.v.
in vitro = conditions: human, plasma
Ly19 = assay: cells; conditions: Homo sapiens, read-out: cytotoxicity IC50
LY7 (OCH-Ly7) = assay: Cytotoxicity DLBCL; conditions: read-out: cytotoxicity IC50; LY7, DLBCL GCB
SUDHL-4 = conditions: human
Method: (§1) After 72 hours, the cultures were pulsed with Alamar Blue overnight, and the fluorescent intensity of resulted cultures was measured by a Synergy H1 plate-reader (BioTek Inc).

Z-138 = assay: Cytotoxicity mantle cell lymphoma
Method: as §1

[4] = tested on: Human Cancer Cell lines, Primary Patient Tumor Samples and normal tissues; assay: Sensitivity classes over panel of cancer lines and normal tissues; format: cell-based; conditions: tumor cell lines of Table 12
LY1 = conditions: human
Method: as §1

[5] = tested on: lymphoma cell lines (DLBCL GBC and ABC, mantle cell lymphoma); assay: Cytotoxicity, panel of lymphoma cell lines (Tables 23, 24, 26); format: cell-based; conditions: Homo sapiens
CCRF-CEM = assay: Cytotoxicity leukemia; format: cell-based, human
ICR mice = assay: Acute intravenous 14-day toxicity; conditions: for Mortality (N/N): 14 days
C57Bl/6 mice = assay: Complete blood counts in healthy mice; format: in vivo, mouse
Excerpt: This is particularly striking in the case of neutrophils, red blood cells and platelets, whose levels are the most frequent dose limiting toxicities seen in clinic evaluation of alkylating drug therapy. There was a 3-4-fold increase in monocytes. The only negative effect was a modest reduction in WBC numbers due to mild lymphopenia at day 10 in the BO-treated group.

Mino = assay: Combination with BO-1055, MCL (Tables 28, 29); format: cell-based, human; conditions: read-out: IC50 single drug
[6] = Plasma protein binding, equilibrium dialysis; format: in vitro ADME; conditions: rat plasma, read-out: % bound (converted)
Excerpt: In drug discovery, the information on drug-plasma protein binding is valuable in evaluating and understanding, the absorption, distribution, metabolism and excretion (ADME)-related properties and the pharmacokinetic profile of drug candidates.

hERG = hERG (Homo sapiens, UniProt Q12809); assay: in vitro
[7] = 30 mg/kg i.v. every other day x5
[8] = day 10, 30 mg/kg i.v. days 1,3,5,8,10

Sequence of hERG (Q12809 whole entry): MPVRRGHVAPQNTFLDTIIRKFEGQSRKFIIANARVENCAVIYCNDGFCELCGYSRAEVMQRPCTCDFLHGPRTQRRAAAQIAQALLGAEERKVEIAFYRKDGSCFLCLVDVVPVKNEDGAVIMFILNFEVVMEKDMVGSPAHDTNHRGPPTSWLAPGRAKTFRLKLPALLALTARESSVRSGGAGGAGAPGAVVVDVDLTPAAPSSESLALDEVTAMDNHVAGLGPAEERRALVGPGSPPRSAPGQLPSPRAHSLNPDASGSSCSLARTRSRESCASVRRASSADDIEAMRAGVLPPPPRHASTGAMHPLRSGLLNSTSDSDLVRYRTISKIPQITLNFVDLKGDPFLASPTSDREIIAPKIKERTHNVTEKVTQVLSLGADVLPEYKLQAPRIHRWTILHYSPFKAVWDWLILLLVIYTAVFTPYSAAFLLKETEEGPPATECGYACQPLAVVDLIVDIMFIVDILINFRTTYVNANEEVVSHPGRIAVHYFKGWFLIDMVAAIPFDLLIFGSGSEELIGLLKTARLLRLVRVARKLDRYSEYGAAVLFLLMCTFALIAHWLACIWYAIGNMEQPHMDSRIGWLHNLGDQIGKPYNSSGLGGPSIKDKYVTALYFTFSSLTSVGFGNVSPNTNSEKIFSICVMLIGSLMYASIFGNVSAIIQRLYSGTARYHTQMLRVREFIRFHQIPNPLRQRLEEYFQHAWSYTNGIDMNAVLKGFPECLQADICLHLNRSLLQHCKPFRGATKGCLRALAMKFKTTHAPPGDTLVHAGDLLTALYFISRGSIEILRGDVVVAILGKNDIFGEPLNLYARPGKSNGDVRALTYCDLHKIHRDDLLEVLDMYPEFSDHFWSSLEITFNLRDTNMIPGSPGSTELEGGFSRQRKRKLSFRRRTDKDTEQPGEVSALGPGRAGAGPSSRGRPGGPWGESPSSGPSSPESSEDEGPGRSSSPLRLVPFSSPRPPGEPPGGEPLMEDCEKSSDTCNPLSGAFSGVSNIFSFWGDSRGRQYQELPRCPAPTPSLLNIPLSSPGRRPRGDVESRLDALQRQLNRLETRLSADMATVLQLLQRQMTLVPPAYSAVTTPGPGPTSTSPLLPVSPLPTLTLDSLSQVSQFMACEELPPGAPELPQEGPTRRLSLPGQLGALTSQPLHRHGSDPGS

N.N.[Cl][Pt][Cl] [Cisplatin]
IC50 (H125): 1.5 µM
IC50 (H417): 2.01 µM
IC50 [1]: 100 µM
IC50 (H596): ≥ 10 µM
IC50 [2]: 4.1 µM
IC50 (CALU-3): ≥ 100 µM
IC50 (H1755): ≥ 15 µM
IC50 (A549): ≥ 30 µM
IC50 (CALU-6): 3.25 µM
IC50 (PC9/gefb4): ≥ 35 µM
IC50 (H525): 7.74 µM
IC50 (H249): 1.51 µM
IC50 (CL97): < 15 µM
IC50 (H211): 1.21 µM
IC50 (H23): 2.5 µM
IC50 (H526): 2.85 µM
IC50 [3]: > 100 µM
IC50 (HCC15): ≥ 85 µM
IC50 (H719): 1.12 µM
IC50 (EBC1): ≥ 100 µM
IC50 (H3255): ≥ 25 µM

CN(C)CCNC(=O)c1cccc(NC(=O)Nc2ccc(N(CCCl)CCCl)cc2)c1 [BO-1055, Ureidomustine]
complete remission (CR) (H526 xenograft; 28 d): 3/4
complete remission (CR) (H526 xenograft; 32 d): 2/4
complete remission (CR) (H526 xenograft; 77 d): 1/4
fraction unbound (in vitro): 0.01
fraction unbound at 2 h (in vitro): 0.01
IC50 (Ly19): 0.29 µM
IC50 (LY7 (OCH-Ly7)): 5.06 µM
IC50 (SUDHL-4): 1.95 µM
IC50 (Z-138; read-out: cytotoxicity IC50, Z-138, mantle cell lymphoma): 0.3 µM
IC50 (Z-138; read-out: mean IC50±SD, Z-138): 0.182 ± 0.15 µM
share of tested cell lines with IC50 in sub-μM range [4]: 30%
IC50 (LY1): 3.86 µM
IC50 ([5]; lines with WT Bcl2): ≥ 0.12 µM
IC50 ([5]; two resistant lines): > 10 µM
IC50 (CCRF-CEM): 0.13 ± 0.002 µM
Post dosing deaths at >1 hr (ICR mice; 50 mg/kg): 0
Mortality (N/N) (ICR mice; 50 mg/kg i.v.): 0/6
Post dosing deaths at >1 hr (ICR mice; 60 mg/kg): 0
Mortality (N/N) (ICR mice; 60 mg/kg i.v.): 0/6
Post dosing deaths at >1 hr (ICR mice; 70 mg/kg): 1
Mortality (N/N) (ICR mice; 70 mg/kg i.v.): 1/6
Post dosing deaths at >1 hr (ICR mice; 80 mg/kg): 6
Mortality (N/N) (ICR mice; 80 mg/kg i.v.): all mice died and 6/6
Post dosing deaths at >1 hr (ICR mice; 100 mg/kg): 6
Mortality (N/N) (ICR mice; 100 mg/kg i.v.): 6/6
increase in monocytes (C57Bl/6 mice; [7]): 3-4 fold
suppression of hematologic parameters (C57Bl/6 mice; [7]): no significant suppression
HCT (C57Bl/6 mice; [8]): 46.30 ± 1.04%
HGB (C57Bl/6 mice; [8]): 13.08 ± 0.25 g/dL
MCHC (C57Bl/6 mice; [8]): 28.28 ± 0.42 g/dL
MCV (C57Bl/6 mice; [8]): 51.03 ± 1.25 fL
MPV (C57Bl/6 mice; [8]): 6.38 ± 0.09 fL
PDW (C57Bl/6 mice; [8]): 7.40 ± 0.24 fL
PLT (C57Bl/6 mice; [8]): 1108.3 ± 76.1 K/μL
RBC (C57Bl/6 mice; [8]): 9.08 ± 0.18 M/μL
RDW-CV (C57Bl/6 mice; [8]): 23.18 ± 0.64%
RDW-SD (C57Bl/6 mice; [8]): 32.48 ± 0.29 fL
WBC (C57Bl/6 mice; [8]): 5.34 ± 0.99 K/μL
IC50 (Mino): 0.115 µM and 0.105 µM and 0.101 µM
fraction unbound at 2 h, 20 μM ([6]; 2 h): 0.0032
fraction unbound at 4 h, 20 μM ([6]; 4 h): 0.0031
fraction unbound at 6 h, 20 μM ([6]; 6 h): 0.0799
fraction unbound at 24 h, 20 μM ([6]; 24 h): 0.248
IC50 (hERG): 12.6 ± 1.64 µM
